Test results published in ChEMBL document CHEMBL2046272, “Ligand Promiscuity between the Efflux Pumps Human P-Glycoprotein and S. aureus NorA” (ACS Med Chem Lett, 2012).
≈ marks a conversion by molar mass, not a printed value.

Tests used:
[1] = target: T1, MDR1 (P-glycoprotein, ABCB1) (Homo sapiens, UniProt P08183); experiment: in vitro
Description: Inhibition of human recombinant MDR1 expressed in mouse L5178Y cells assessed as inhibition of rhodamine-123 efflux at 10^-4 M preincubated for 10 mins measured after 20 mins by FACS analysis

[2] = target: T2, Quinolone resistance protein NorA (Staphylococcus aureus) (UniProt P0A0J7); settings: SA-1199B, at 50 µM
T2 sequence (whole entry): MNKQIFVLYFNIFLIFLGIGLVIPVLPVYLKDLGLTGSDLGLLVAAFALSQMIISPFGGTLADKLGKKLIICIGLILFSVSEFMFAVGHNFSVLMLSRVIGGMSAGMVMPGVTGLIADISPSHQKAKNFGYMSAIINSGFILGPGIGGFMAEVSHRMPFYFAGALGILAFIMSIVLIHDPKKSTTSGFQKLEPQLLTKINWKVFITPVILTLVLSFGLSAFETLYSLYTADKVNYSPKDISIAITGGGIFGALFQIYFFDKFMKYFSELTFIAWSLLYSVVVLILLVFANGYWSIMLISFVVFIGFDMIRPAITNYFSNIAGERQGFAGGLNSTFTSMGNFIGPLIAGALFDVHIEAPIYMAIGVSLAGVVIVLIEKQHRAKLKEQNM
Description: Inhibition of norA-mediated ethidium bromide efflux in Staphylococcus aureus SA-1199B harboring grlA A116E mutant at 50 uM after 5 mins by fluorometric analysis

Staphylococcus aureus = experiment: microbe, parasite or virus in culture; format: functional; settings: SA-1199B
Description: Antibacterial activity against Staphylococcus aureus SA-1199B harboring grlA A116E mutant by microdilution techniques

[3] = target: T1, MDR1 (P-glycoprotein, ABCB1); experiment: Inhibition of human recombinant MDR1 expressed in mouse L5178Y cells assessed as inhibition of rhodamine-123 efflux at 10^-5 M preincubated for 10 mins measured after 20 mins by FACS analysis; format: cell-based; settings: mouse L5178Y cells expressing human recombinant MDR1, probe rhodamine-123
[4] = mouse L5178Y cells expressing human recombinant MDR1, probe rhodamine-123

Structure (SMILES) | inhibition at 20 min, 100 µM [1, 4] | inhibition [2] | also measured
N#Cc1c(SCc2ccc(Cl)nc2)nc2c(c1C(F)(F)F)CCCC2 | 20.4% |  | 
N#Cc1c(C(F)(F)F)cc(Cc2ccccc2)nc1SCc1ccc(C(=O)O)cc1 | 2.6% |  | 
O=C1NC(=O)/C(=C/c2ccc(-c3cc(C(=O)O)ccc3Cl)o2)S1 | 2.6% |  | 
CCOc1cc(CC(=O)N[C@@H](CC(C)C)c2ccccc2N2CCCCC2)ccc1C(=O)O [REPAGLINIDE] | 35% | 14% | 
CCOC(=O)c1cn(C2CC2)c2cc(N3CCC4=C(C3)/C(=N/OC)C(C)CS4)c(N)cc2c1=O (configuration not stated) | 16.8% |  | 
CCCOc1ccc(-c2cc(=O)c3ccccc3n2C)cc1 | 1.9% |  | 
CCN(CC)CCCN(c1ccccc1)C1Cc2ccccc2C1 [APRINDINE] | 16% | 51.6% | 
CCC(C)N1C(=O)S/C(=C\c2ccc(N3CCCC3)o2)C1=O (configuration not stated) | 11.3% |  | 
O=C1CCc2ccc(OCCCCN3CCN(c4cccc(Cl)c4Cl)CC3)cc2N1 [ARIPIPRAZOLE] | 99% | 92.3% | MIC (Staphylococcus aureus): > 100 µg/mL
COc1cccc(CNC(C)C(O)c2ccccc2)c1 (configuration not stated) | 2.1% |  | 
CCC(C)N1C(=O)S/C(=C\c2ccc(-c3cc(C(=O)O)ccc3Cl)o2)C1=O (configuration not stated) |  |  | inhibition at 20 min, 10 µM [3]: 1.7%
C=C[C@H]1C[N@@]2CC[C@H]1C[C@@H]2[C@@H](O)c1ccnc2ccc(OC)cc12 [QUINIDINE] |  |  | inhibition at 20 min, 100 µM ([1]; l5178y): 21.1%
CCN(CC)CCOc1ccc(-c2cc(=O)c3ccccc3n2C)cc1 |  |  | inhibition at 20 min, 10 µM [3]: 2.6%
C=C[C@H]1CN2CC[C@H]1C[C@@H]2[C@@H](O)c1ccnc2ccc(OC)cc12 |  | 31.5% | 
Cc1ccc(S(=O)(=O)Nc2ccc3c(c2)nc(C)n3Cc2ccccc2)cc1 | 21.7% |  | 
CN(C)CCOc1ccc(-c2cc(=O)c3ccccc3n2C)cc1 | 3.2% |  | 
Cc1ccc(S(=O)(=O)Nc2ccc3c(c2)ncn3-c2ccccc2)cc1 | 2.3% |  | 

Structure (SMILES) | inhibition at 20 min, 100 µM [1, 4] | inhibition [2] | also measured
C=CCc1ccccc1OCC(O)CNC(C)C (configuration not stated) [ALPRENOLOL] | 5% |  | 
CN(C)C(=O)C(CCN1CCC(O)(c2ccc(Cl)cc2)CC1)(c1ccccc1)c1ccccc1 [LOPERAMIDE] |  | 77.7% | MIC (Staphylococcus aureus): > 100 µg/mL; inhibition at 20 min, 10 µM [3]: 4.5%
COc1ccc(C2=Nc3ccccc3SC2)cc1OC | 44.1% |  | 
COc1cc(C2=Nc3ccccc3SC2)cc(OC)c1OC | 64.7% |  | 
O=C1Cc2cc(CCN3CCN(c4nsc5ccccc45)CC3)c(Cl)cc2N1 [ZIPRASIDONE] | 19% | 86.6% | MIC (Staphylococcus aureus): > 100 µg/mL
COc1ccc(CCN2CCC(Nc3nc4ccccc4n3Cc3ccc(F)cc3)CC2)cc1 [ASTEMIZOLE] |  | 80.6% | MIC (Staphylococcus aureus): 100 µg/mL (≈ 218 µM); inhibition at 20 min, 10 µM [3]: 12.8%
Cc1ccc(S(=O)(=O)Nc2ccc3nc(-c4cccn4C)[nH]c3c2)cc1 | 4.3% |  | 
CC[C@H](C)N1C(=O)S/C(=C/c2ccc(-c3cc(C(=O)O)ccc3Cl)o2)C1=O |  |  | inhibition at 20 min, 10 µM [3]: 0.7%
O=C1NCCN1CCN1CCC(c2cn(-c3ccc(F)cc3)c3ccc(Cl)cc23)CC1 [SERTINDOLE] | 74% | 81.8% | MIC (Staphylococcus aureus): 25 µg/mL (≈ 56.7 µM)
C[C@@H](NCc1cccc(OCc2ccccc2)c1)[C@@H](O)c1ccccc1 |  |  | inhibition at 20 min, 10 µM [3]: 7.8%
CCOC(=O)C1=C(COCCN)NC(C)=C(C(=O)OC)C1c1ccccc1Cl (configuration not stated) [AMLODIPINE] |  | 60.6% | inhibition at 20 min, 10 µM [3]: 52.8%
Cn1cccc1-c1nc2cc(NC(=O)c3ccccc3)ccc2[nH]1 | 1.6% |  | 
CCOC(=O)c1cn(C2CC2)c2cc(N3CCC4=C(C3)/C(=N/O)C(C)CS4)c(N)cc2c1=O (configuration not stated) | 40.6% |  | 
CC(C)(C)c1ccc(C(=O)CCCN2CCC(OC(c3ccccc3)c3ccccc3)CC2)cc1 [EBASTINE] |  | 88.3% | MIC (Staphylococcus aureus): > 100 µg/mL
c1ccc(CCN(Cc2ccccc2)Cc2cccc(OCc3ccccc3)c2)cc1 | 2.2% |  | 
CC[C@H]1CCc2nc(SCc3ccc(C(=O)O)cc3)c(C#N)c(C(F)(F)F)c2C1 |  |  | inhibition at 20 min, 10 µM [3]: 0.6%
